Patent US12139520B2 (priority 2020, dated 2024)
pEC50: −log10 of the molar value. Bridge positions count the residues as written; N and C are the ends. Square brackets hold non-standard residues; d marks the D form. Peptide text beside a SMILES is read from it. Hyp = O=C(O)[C@@H]1C[C@@H](O)CN1

Legend:
[1] = Physical stability of peptide analogues (Thioflavin T fibrillation); type: physicochemical; conditions: maximum ThT signal normalized between hAMY maximum and buffer background; 40° C., shaking, four days; pH 7 per table title
Description: General Protocols for Determination of Physical Stability of Peptide Analogues
Peptides were dissolved in buffers (50 mM sodium acetate at pH 4 or 50 mM sodium phosphate at pH 7) and incubated for one hour. The samples were then divided into two replicates of 80 μl in a black 384 well plate (μ-clear, Greiner Bio-One) and mixed with Thioflavin T (ThT) to a final concentration of 4 μM. The plate was sealed and placed in a plate reader (CLARIOstar, BMG) where the temperature was set at 40° C. during the course of the experiment. The samples were further stressed by shaking the plate at 700 rpm (linear) for five minutes before every measurement. The fluorescence was measured every 10 min for four days by exciting the ThT at 450 nm and measuring the emission at 480 nm. For each peptide, the ThT signal over time was smoothened using Local Polynomial Regression fitting (LOESS) as implemented in the statistical programming environment R. For the smoothened data, the maximum ThT signal was normalized in percent between the maximum ThT signal for hAMY and the buffer background.

hAMY3 receptor = molecular target: T1, hAMY3 receptor (Homo sapiens, UniProt O60896+P30988); test: cAMP assay for in vitro receptor activation, hAMY3-R; type: cell-based; conditions: cAMP assay, hAMY3 receptor; read-out: hAMY3R EC50
T1 sequence (P30988 25-474): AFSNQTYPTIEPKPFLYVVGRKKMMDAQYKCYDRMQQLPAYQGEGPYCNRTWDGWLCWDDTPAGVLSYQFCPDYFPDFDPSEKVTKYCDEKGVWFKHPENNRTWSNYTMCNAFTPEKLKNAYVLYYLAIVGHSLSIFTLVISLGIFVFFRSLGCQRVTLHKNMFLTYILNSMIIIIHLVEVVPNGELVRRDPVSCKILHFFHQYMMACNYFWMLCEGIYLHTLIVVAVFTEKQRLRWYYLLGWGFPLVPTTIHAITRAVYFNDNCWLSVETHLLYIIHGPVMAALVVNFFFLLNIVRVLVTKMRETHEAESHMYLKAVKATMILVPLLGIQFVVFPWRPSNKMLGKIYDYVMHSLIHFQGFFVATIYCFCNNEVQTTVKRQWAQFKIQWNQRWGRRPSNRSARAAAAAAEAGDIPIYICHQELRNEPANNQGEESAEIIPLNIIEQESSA
T1 sequence (O60896 24-148 partner): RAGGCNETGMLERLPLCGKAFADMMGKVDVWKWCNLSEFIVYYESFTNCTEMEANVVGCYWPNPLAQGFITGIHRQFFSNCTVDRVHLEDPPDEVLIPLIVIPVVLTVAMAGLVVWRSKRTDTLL
How it was run: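 Accumulated cAMP was detected by time-resolved FRET one hour after reagent addition. Beforehand, hAMY3-R-overexpressing monoclonal cells (2000/well, DPBS, 0.05% casein, 0.5 mM IBMX) received graded doses of compound for 30 min at room temperature; human amylin served as positive control.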

| Max ThT signal (%) [1] [%] | pEC50 (hAMY3 receptor) | SMILES |
| --- | --- | --- |
| 7.200 | 10.57 | CC[C@H](C)[C@H](NC(=O)[C@H](CCC(N)=O)NC(=O)[C@H](Cc1c[nH]cn1)NC(=O)[C@H](C)NC(=O)[C@H](CC(C)C)NC(=O)[C@H](CCCNC(=N)N)NC(=O)[C@H](CCC(N)=O)NC(=O)[C@@H](NC(=O)[C@@H](NC(=O)[C@@H]1CSSC[C@H](NC(=O)CN)C(=O)N[C@@H](CCCNC(=N)N)C(=O)N[C@@H](Cc2ccccc2)C(=O)NCC(=O)N[C@@H]([C@@H](C)O)C(=O)N1)[C@@H](C)O)C(C)C)C(=O)N[C@@H](Cc1ccc(O)cc1)C(=O)N[C@@H](CCC(N)=O)C(=O)N[C@@H](Cc1ccccc1)C(=O)N[C@H](C(=O)N[C@@H](CC(=O)O)C(=O)N[C@@H](CCCCN)C(=O)N[C@@H](CC(=O)O)C(=O)N[C@@H](CCCCN)C(=O)N[C@@H](CC(=O)O)C(=O)N[C@@H](CC(N)=O)C(=O)N[C@H](C(=O)N[C@@H](C)C(=O)N1CCC[C@H]1C(=O)N[C@@H](CCCNC(=N)N)C(=O)N[C@H](C(=O)N[C@@H](CC(N)=O)C(=O)N[C@H](C(=O)N[C@@H](CO)C(=O)N1CCC[C@H]1C(=O)N[C@@H](CCC(N)=O)C(=O)NCC(=O)N1C[C@H](O)C[C@H]1C(N)=O)C(C)C)[C@@H](C)O)C(C)C)[C@@H](C)O [compound 125] (H-GCRFGTCTVQRLAHQIYQFTDKDKDNVAPRTNVSPQG[Hyp]-NH2; disulfide 2-7; N-terminus assumed) |
| 2.000 | 9.73 | CC[C@H](C)[C@H](NC(=O)[C@H](CCC(N)=O)NC(=O)[C@H](Cc1c[nH]cn1)NC(=O)[C@H](C)NC(=O)[C@H](CC(C)C)NC(=O)[C@H](CCCNC(=N)N)NC(=O)[C@H](CCC(N)=O)NC(=O)[C@@H](NC(=O)[C@@H](NC(=O)[C@@H]1CSSC[C@H](NC(=O)CN)C(=O)N[C@@H](CCCNC(=N)N)C(=O)N[C@@H]([C@@H](C)O)C(=O)NCC(=O)N[C@@H]([C@@H](C)O)C(=O)N1)[C@@H](C)O)C(C)C)C(=O)N[C@@H](Cc1ccc(O)cc1)C(=O)N[C@@H](CCC(N)=O)C(=O)N[C@@H](Cc1ccccc1)C(=O)N[C@H](C(=O)N[C@@H](CC(=O)O)C(=O)N[C@@H](CCCCN)C(=O)N[C@@H](CC(=O)O)C(=O)N[C@@H](CCCCN)C(=O)N[C@@H](CC(=O)O)C(=O)N[C@@H](CC(N)=O)C(=O)N[C@H](C(=O)N[C@@H](C)C(=O)N1CCC[C@H]1C(=O)N[C@@H](CCCNC(=N)N)C(=O)N[C@@H](CO)C(=O)N[C@@H](CC(N)=O)C(=O)N[C@H](C(=O)N[C@@H](CO)C(=O)N1CCC[C@H]1C(=O)N[C@@H](CCC(N)=O)C(=O)NCC(=O)N1C[C@H](O)C[C@H]1C(N)=O)C(C)C)C(C)C)[C@@H](C)O [compound 224] (H-GCRTGTCTVQRLAHQIYQFTDKDKDNVAPRSNVSPQG[Hyp]-NH2; disulfide 2-7; N-terminus assumed) |
| 12.900 |  | CC[C@H](C)[C@H](NC(=O)[C@H](CCC(N)=O)NC(=O)[C@H](Cc1c[nH]cn1)NC(=O)[C@H](C)NC(=O)[C@H](CC(C)C)NC(=O)[C@H](CCCNC(=N)N)NC(=O)[C@H](CCC(N)=O)NC(=O)[C@@H](NC(=O)[C@@H](NC(=O)[C@@H]1CSSC[C@H](NC(=O)CN)C(=O)N[C@@H](CCCNC(=N)N)C(=O)N[C@@H]([C@@H](C)O)C(=O)NCC(=O)N[C@@H]([C@@H](C)O)C(=O)N1)[C@@H](C)O)C(C)C)C(=O)N[C@@H](Cc1ccc(O)cc1)C(=O)N[C@@H](CCC(N)=O)C(=O)N[C@@H](Cc1ccccc1)C(=O)N[C@H](C(=O)N[C@@H](CC(=O)O)C(=O)N[C@@H](CCCCN)C(=O)N[C@@H](CC(=O)O)C(=O)N[C@@H](CCCCN)C(=O)N[C@@H](CC(=O)O)C(=O)N[C@@H](CC(N)=O)C(=O)N[C@H](C(=O)N[C@@H](C)C(=O)N1CCC[C@H]1C(=O)N[C@@H](CCCNC(=N)N)C(=O)N[C@H](C(=O)N[C@@H](CCCCN)C(=O)N[C@H](C(=O)N[C@@H](CO)C(=O)N1CCC[C@H]1C(=O)N[C@@H](CC(N)=O)C(=O)NCC(=O)N[C@@H](Cc1ccc(O)cc1)C(N)=O)[C@@H](C)CC)[C@@H](C)O)C(C)C)[C@@H](C)O [compound 190] (H-GCRTGTCTVQRLAHQIYQFTDKDKDNVAPRTKISPNGY-NH2; disulfide 2-7) |
| 0.600 |  | CC[C@H](C)[C@H](NC(=O)[C@H](CCC(N)=O)NC(=O)[C@H](Cc1c[nH]cn1)NC(=O)[C@H](C)NC(=O)[C@H](CC(C)C)NC(=O)[C@H](CCCNC(=N)N)NC(=O)[C@H](CCC(N)=O)NC(=O)[C@@H](NC(=O)[C@@H](NC(=O)[C@@H]1CSSC[C@H](NC(=O)CN)C(=O)N[C@@H](CCCNC(=N)N)C(=O)N[C@@H]([C@@H](C)O)C(=O)NCC(=O)N[C@@H]([C@@H](C)O)C(=O)N1)[C@@H](C)O)C(C)C)C(=O)N[C@@H](Cc1ccc(O)cc1)C(=O)N[C@@H](CCC(N)=O)C(=O)N[C@@H](Cc1ccccc1)C(=O)N[C@H](C(=O)N[C@@H](CC(=O)O)C(=O)N[C@@H](CCCCN)C(=O)N[C@@H](Cc1ccccc1)C(=O)N[C@@H](CCCCN)C(=O)N[C@@H](CC(=O)O)C(=O)N[C@@H](CC(N)=O)C(=O)N[C@H](C(=O)N[C@@H](C)C(=O)N1CCC[C@H]1C(=O)N[C@@H](CCCNC(=N)N)C(=O)N[C@@H](CO)C(=O)N[C@@H](CCCCN)C(=O)N[C@H](C(=O)N[C@@H](CO)C(=O)N1CCC[C@H]1C(=O)N[C@@H](CCC(N)=O)C(=O)N[C@@H](CCSC)C(=O)N1C[C@H](O)C[C@H]1C(N)=O)[C@@H](C)CC)C(C)C)[C@@H](C)O [compound 236] (H-GCRTGTCTVQRLAHQIYQFTDKFKDNVAPRSKISPQM[Hyp]-NH2; disulfide 2-7; N-terminus assumed) |
| 5.200 |  | CC[C@H](C)[C@H](NC(=O)[C@H](CCC(N)=O)NC(=O)[C@H](Cc1c[nH]cn1)NC(=O)[C@H](C)NC(=O)[C@H](CC(C)C)NC(=O)[C@H](CCCNC(=N)N)NC(=O)[C@H](CCC(N)=O)NC(=O)[C@@H](NC(=O)[C@@H](NC(=O)[C@@H]1CSSC[C@H](NC(=O)CN)C(=O)N[C@@H](CCCNC(=N)N)C(=O)N[C@@H]([C@@H](C)O)C(=O)NCC(=O)N[C@@H]([C@@H](C)O)C(=O)N1)[C@@H](C)O)C(C)C)C(=O)N[C@@H](Cc1ccc(O)cc1)C(=O)N[C@@H](CCC(N)=O)C(=O)N[C@@H](Cc1ccccc1)C(=O)N[C@H](C(=O)N[C@@H](CC(=O)O)C(=O)N[C@@H](CCCCN)C(=O)N[C@@H](Cc1ccccc1)C(=O)N[C@@H](CCCCN)C(=O)N[C@@H](CC(=O)O)C(=O)N[C@@H](CC(N)=O)C(=O)N[C@H](C(=O)N[C@@H](C)C(=O)N1CCC[C@H]1C(=O)N[C@@H](CCCNC(=N)N)C(=O)N[C@@H](CO)C(=O)N[C@@H](CCCCN)C(=O)N[C@H](C(=O)N[C@@H](CO)C(=O)N1CCC[C@H]1C(=O)N[C@@H](CCC(N)=O)C(=O)N[C@@H](Cc1ccccc1)C(=O)N1C[C@H](O)C[C@H]1C(N)=O)[C@@H](C)CC)C(C)C)[C@@H](C)O [compound 211] (H-GCRTGTCTVQRLAHQIYQFTDKFKDNVAPRSKISPQF[Hyp]-NH2; disulfide 2-7; N-terminus assumed) |
| 0.800 |  | CC[C@H](C)[C@H](NC(=O)[C@H](CCC(N)=O)NC(=O)[C@H](Cc1c[nH]cn1)NC(=O)[C@H](C)NC(=O)[C@H](CC(C)C)NC(=O)[C@H](CCCNC(=N)N)NC(=O)[C@H](CCC(N)=O)NC(=O)[C@@H](NC(=O)[C@@H](NC(=O)[C@@H]1CSSC[C@H](NC(=O)CN)C(=O)N[C@@H](CCCNC(=N)N)C(=O)N[C@@H]([C@@H](C)O)C(=O)NCC(=O)N[C@@H]([C@@H](C)O)C(=O)N1)[C@@H](C)O)C(C)C)C(=O)N[C@@H](Cc1ccc(O)cc1)C(=O)N[C@@H](CCC(N)=O)C(=O)N[C@@H](Cc1ccccc1)C(=O)N[C@H](C(=O)N[C@@H](CC(=O)O)C(=O)N[C@@H](CCCCN)C(=O)N[C@@H](Cc1ccccc1)C(=O)N[C@@H](CCCCN)C(=O)N[C@@H](CC(=O)O)C(=O)N[C@@H](CC(N)=O)C(=O)N[C@H](C(=O)N[C@@H](C)C(=O)N1CCC[C@H]1C(=O)N[C@@H](CCCNC(=N)N)C(=O)N[C@@H](CO)C(=O)N[C@@H](CCCCN)C(=O)N[C@H](C(=O)N[C@@H](CO)C(=O)N1CCC[C@H]1C(=O)N[C@@H](CCC(N)=O)C(=O)N[C@H](C(=O)N1CCC[C@H]1C(N)=O)[C@@H](C)O)[C@@H](C)CC)C(C)C)[C@@H](C)O [compound 235] (H-GCRTGTCTVQRLAHQIYQFTDKFKDNVAPRSKISPQTP-NH2; disulfide 2-7; N-terminus assumed) |
